We go through four compounds from patent publication US4428937A, “Antibacterial agents” (Beecham Group Limited, priority 1975, dated 1984).

For data set [1], the system named is Staphylococcus aureus Russell. Description: In-vitro synergy: MIC of ampicillin in presence of sodium deoxyclavulanate. In kind it is cell-based. The source says: (§1) The antibacterial and synergistic properties of sodium deoxyclavulanate are illustrated by the following in-vitro results: | Minimum Inhibitory Concentration | (μg/ml) of Ampicillin in Presence | of Various Concentrations of | Sodium Deoxyclavulanate (μg/ml) |Organism 0 1 5 20

Data set [2] has as its system Klebsiella aerogenes E70. Described as above. In kind it is cell-based.
Text: as §1

For data set [3] the following is noted: prior disclosures; cited from earlier work.
Data set [4] concerns β-lactamase. The note with it: prior disclosures; cited from earlier work.
In data set [5] the test system is Bacillus subtilis A. Description: In-vitro minimum inhibitory concentration. It counts as cell-based. An excerpt: (§2) The antibacterial and synergistic properties of sodium deoxyclavulanate are illustrated by the following in-vitro results: | Minimum Inhibitory | Concentration of Sodium | Organism Deoxyclavulanate (μg/ml)
For data set [6], the system named is Enterobacter cloacae N1. The experiment in a line: In-vitro minimum inhibitory concentration. It counts as cell-based.
Text: as §2

The test system of data set [7] is Staph. aureus Oxford. Description: In-vitro minimum inhibitory concentration. In kind it is cell-based. The note with it: Staphylococcus aureus.
Text: as §2

Data set [8] concerns Salmonella typhimurium CT10. Description: In-vitro minimum inhibitory concentration. It counts as cell-based. To be noted: Salmonella enterica.
Text: as §2

The test system of data set [9] is Escherichia coli 10418. Description: In-vitro minimum inhibitory concentration. It counts as cell-based.
Text: as §2

The test system of data set [10] is Proteus mirabilis C 977. Description: In-vitro minimum inhibitory concentration. It counts as cell-based. The note with it: C977.
Text: as §2

Data set [11] concerns Klebsiella aerogenes A. The experiment in a line: In-vitro minimum inhibitory concentration. It counts as cell-based.
Text: as §2

Data set [12] deals with Staph. aureus Russell. The experiment in a line: In-vitro minimum inhibitory concentration. It counts as cell-based. To be noted: Staphylococcus aureus.
Text: as §2

The test system of data set [13] is Serratia marcescens US 39. The experiment in a line: In-vitro minimum inhibitory concentration. It counts as cell-based. To be noted: US39.
Text: as §2

Data set [14] has as its system Pseudomonas aeruginosa A. The experiment in a line: In-vitro minimum inhibitory concentration. In kind it is cell-based.
Text: as §2

The nature of data set [15]: Overt toxic effects in mice, intraperitoneal. To be noted: intra peritoneally, 500 mg/kg. It counts as in vivo.
Where [16] appears, read: sodium deoxyclavulanate 0 μg/ml, read-out: Minimum Inhibitory Concentration of Ampicillin.
Setting [17] is: sodium deoxyclavulanate 1 μg/ml.
Setting [18] is: sodium deoxyclavulanate 5 μg/ml.

Each structure is given as a SMILES string.

Consider `CC1(C)S[C@@H]2[C@H](NC(=O)[C@H](N)c3ccccc3)C(=O)N2[C@H]1C(=O)O` [Ampicillin], for which the MIC in [1] (setting [16]) was 500 µg/mL; in [2] (setting [16]) it was more than 500 µg/mL. In addition, the “Minimum Inhibitory Concentration of Ampicillin in Presence of Sodium Deoxyclavulanate” value in data set [1] (setting [17]) is 0.8 µg/mL; in data set [1] (setting [18]), 0.08 µg/mL; in data set [2] (setting [17]), 0.8 µg/mL; in data set [2] (setting [18]), 0.2 to 0.4 µg/mL.

With `O=C(O)[C@H]1/C(=C\CO)O[C@@H]2CC(=O)N21` [Isoclavulanic acid, isoclavulanic acid], the anti-bacterial activity result in data set [3] was “also have anti-bacterial”. In addition, the β-lactamase inhibitory activity entry in [4] is listed as “β-lactamase inhibitory activity”.

In the case of `C/C=C1\O[C@@H]2CC(=O)N2[C@H]1C(=O)O` [Sodium deoxyclavulanate, Sodium Deoxyclavulanate], the MIC came out at 62.5 µg/mL in data set [5]; 125 µg/mL in data set [6]; 15.6 µg/mL in data set [7]; 125 µg/mL in data set [8]; 62.5 µg/mL in data set [9]; 125 µg/mL in data set [10]. Besides, the MIC in data set [11] is 62.5 µg/mL; in data set [12], 31 µg/mL; in data set [13], 125 µg/mL; in [14] it was 1000 µg/mL. The overt toxic effects result in data set [15] is “did not appear to produce any overt toxic effects”. Further, the “Inhibition by sodium deoxyclavulanate alone” value in data set [1] (sodium deoxyclavulanate 20 μg/ml) is “Inhibition produced by sodium deoxyclavulanate alone”.

With `O=C(O)[C@H]1/C(=C/CO)O[C@@H]2CC(=O)N21` [clavulanic acid], in data set [3], the anti-bacterial activity entry is given as “possess anti-bacterial”. Further, the β-lactamase inhibitory activity entry in data set [4] is on record as “β-lactamase inhibitory activity”.
